Numbers after ± are expanded uncertainties.
Assay: mn = molality of the nth substance listed, in mol/kg
Conditions: 101 kPa, Liquid; for mass density: Vibrating tube method; for speed of sound: Pulse-echo method

NCC(=O)O [2-aminoacetic acid] + O
Conditions | mass density, 288.15 K [kg/m3] | mass density, 293.15 K [kg/m3] | mass density, 298.15 K [kg/m3] | mass density, 303.15 K [kg/m3] | mass density, 308.15 K [kg/m3] | speed of sound, 298.15 K [m/s]
m1 = 0.06261 | 1001.13 ± 0.11 | 1000.21 ± 0.11 | 999.029 ± 0.11 | 997.604 ± 0.11 | 995.978 ± 0.11 | 1499.9 ± 0.97
m1 = 0.1199 | 1002.98 ± 0.11 | 1002.03 ± 0.11 | 1000.83 ± 0.11 | – | 997.751 ± 0.11 | 1502.8 ± 0.98
m1 = 0.1769 | 1004.8 ± 0.11 | 1003.84 ± 0.11 | 1002.62 ± 0.11 | 1001.15 ± 0.11 | 999.494 ± 0.11 | 1505.8 ± 0.98
m1 = 0.2352 | 1006.65 ± 0.11 | 1005.66 ± 0.11 | 1004.42 ± 0.11 | 1002.94 ± 0.11 | 1001.28 ± 0.11 | 1508.8 ± 0.98
m1 = 0.2963 | 1008.56 ± 0.11 | 1007.54 ± 0.11 | 1006.29 ± 0.11 | 1004.79 ± 0.11 | 1003.12 ± 0.11 | 1512 ± 0.98

CN(C)CC(=O)O [(Dimethylamino)acetic acid] + O
Conditions | mass density, 288.15 K [kg/m3] | mass density, 293.15 K [kg/m3] | mass density, 298.15 K [kg/m3] | mass density, 303.15 K [kg/m3] | mass density, 308.15 K [kg/m3] | speed of sound, 298.15 K [m/s]
m1 = 0.05966 | 1000.46 ± 0.11 | 999.537 ± 0.11 | 998.354 ± 0.11 | 996.925 ± 0.11 | 995.303 ± 0.11 | 1500.9 ± 0.98
m1 = 0.119 | 1001.8 ± 0.11 | 1000.85 ± 0.11 | 999.646 ± 0.11 | 998.203 ± 0.11 | 996.574 ± 0.11 | 1505.1 ± 0.98
m1 = 0.1791 | 1003.14 ± 0.11 | 1002.16 ± 0.11 | 1000.94 ± 0.11 | 999.477 ± 0.11 | 997.836 ± 0.11 | 1509.4 ± 0.98
m1 = 0.2399 | 1004.48 ± 0.11 | 1003.48 ± 0.11 | 1002.23 ± 0.11 | 1000.75 ± 0.11 | 999.104 ± 0.11 | 1513.6 ± 0.99
m1 = 0.3007 | 1005.8 ± 0.11 | 1004.78 ± 0.11 | 1003.51 ± 0.11 | 1002.02 ± 0.11 | 1000.37 ± 0.11 | 1517.9 ± 0.99

C[N+](C)(C)CC(=O)[O-] [(trimethylammonio)acetate] + O
Conditions | mass density, 288.15 K [kg/m3] | mass density, 293.15 K [kg/m3] | mass density, 298.15 K [kg/m3] | mass density, 303.15 K [kg/m3] | mass density, 308.15 K [kg/m3] | speed of sound, 298.15 K [m/s]
m1 = 0.06226 | 1000.25 ± 0.11 | 999.33 ± 0.11 | 998.149 ± 0.11 | 996.726 ± 0.11 | 995.1 ± 0.11 | 1501.3 ± 0.97
m1 = 0.125 | 1001.4 ± 0.11 | 1000.46 ± 0.11 | 999.253 ± 0.11 | 997.814 ± 0.11 | 996.18 ± 0.11 | 1505.9 ± 0.98
m1 = 0.1884 | 1002.54 ± 0.11 | 1001.57 ± 0.11 | 1000.35 ± 0.11 | 998.899 ± 0.11 | 997.254 ± 0.11 | 1510.5 ± 0.98
m1 = 0.2532 | 1003.69 ± 0.11 | 1002.7 ± 0.11 | 1001.46 ± 0.11 | 999.994 ± 0.11 | 998.337 ± 0.11 | 1515.2 ± 0.98
m1 = 0.3185 | 1004.83 ± 0.11 | 1003.83 ± 0.11 | 1002.56 ± 0.11 | 1001.08 ± 0.11 | 999.42 ± 0.11 | 1519.9 ± 0.99
